Reference: patent EP4707280A1, “1,4-CINEOLE DERIVATIVE AND INTERMEDIATE THEREOF, HERBICIDE CONTAINING SAID DERIVATIVE AS ACTIVE INGREDIENT, METHOD FOR USING HERBICIDE, AND METHOD FOR PREPARING AGROCHEMICAL COMPOSITION” (HOKKO CHEMICAL INDUSTRY CO., LTD., priority 2023, dated 2024)

Tests used:
Type in all cases: in vivo
[1] = system: Monochoria vaginalis; assay: Test Example 1: herbicidal effect test by soil application in paddy rice; conditions: Pontederia vaginalis, soil, 336 h; 120 g active ingredient per 10 ares; applied immediately after sowing, flooded pots; 14 days after application; read-out: weed inhibition rate
How it was run: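 Pre-emergence test in puddled, flooded paddy soil (about 3 cm water), 30 seeds per weed sown at 0–1 cm depth in a glass greenhouse. Emulsifiable concentrate diluted in water and dropped onto the pots straight after sowing at 120 g a.i. per 10 ares. Weed inhibition (%) scored at 14 days, in duplicate.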

[2] = system: Echinochloa crus-galli; assay: Test Example 4: herbicidal effect test by stem and leaf treatment in upland field; conditions: Echinochloa crus-galli; 120 g per 10 ares; sprayed seven days after sowing, upland soil; 14 days after application; read-out: weed inhibition rate
[3] = system: Digitaria ciliaris; assay: Test Example 3: herbicidal effect test by soil application in upland field; conditions: Digitaria ciliaris, 120 g per 10 ares, sprayed one day after sowing, 14 days after application, read-out: weed inhibition rate
How it was run: (§1)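 Pre-emergence test: seeds mixed into top 1 cm of alluvial loam upland soil in pots; emulsifiable concentrate diluted in water sprayed on soil one day after sowing at 100 L/10 a, 120 g a.i./10 a. Weed inhibition rate (%) scored at 14 days, in duplicate.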

[4] = system: Echinochloa crus-galli; assay: as above; conditions: Echinochloa crus-galli, 120 g per 10 ares, sprayed one day after sowing, 14 days after application, read-out: weed inhibition rate
How it was run: as §1

[5] = system: Digitaria ciliaris; assay: Test Example 8: herbicidal effect test by stem and leaf treatment in upland field (low dose); conditions: Digitaria ciliaris; 7.5 g per 10 ares; sprayed seven days after sowing, upland soil; 14 days after application; read-out: weed inhibition rate
[6] = system: Echinochloa crus-galli; assay: as above; conditions: Echinochloa crus-galli; 7.5 g per 10 ares; sprayed seven days after sowing, upland soil; 14 days after application; read-out: weed inhibition rate
[7] = system: Digitaria ciliaris; assay: Test Example 4: herbicidal effect test by stem and leaf treatment in upland field; conditions: Digitaria ciliaris; 120 g per 10 ares; sprayed seven days after sowing, upland soil; 14 days after application; read-out: weed inhibition rate
[8] = system: Echinochloa crus-galli var. formosensis; assay: Test Example 1: herbicidal effect test by soil application in paddy rice; conditions: Echinochloa crus-galli, soil, 336 h; 120 g active ingredient per 10 ares; applied immediately after sowing, flooded pots; 14 days after application; read-out: weed inhibition rate
How it was run: (§2)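 Paddy soil in Wagner pots (1/10,000 acre) was fertilized (N:P:K 16:16:16) and puddled, then weed seeds were sown 0–1 cm deep, 30 each. Pots were flooded to ~3 cm and kept in a glass greenhouse. Emulsifiable concentrate diluted in water was dropped on immediately after sowing at 120 g a.i. per 10 ares.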

[9] = system: Echinochloa crus-galli var. formosensis; assay: Test Example 6: herbicidal effect test by application during growth period of paddy rice (low dose); conditions: Echinochloa crus-galli; 7.5 g per 10 ares; applied seven days after sowing, flooded pots; 14 days after application; read-out: weed inhibition rate
How it was run: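 Low-dose water application, 7.5 g a.i. per 10 ares, given by dropper into flooded pots (about 3 cm depth) 7 days after sowing of 30 weed seeds each at 0–1 cm. Evaluation of inhibition (%) took place 14 days later, duplicate per rate.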

[10] = system: Echinochloa crus-galli; assay: Test Example 7: herbicidal effect test by soil application in upland field (low dose); conditions: Echinochloa crus-galli, 7.5 g per 10 ares, sprayed one day after sowing, 14 days after application, read-out: weed inhibition rate
How it was run: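 Low-dose soil treatment at 7.5 g a.i. per 10 a, applied as a diluted emulsifiable concentrate sprayed onto the soil surface one day after sowing in upland alluvial loam. Duplicate pots; percent weed inhibition is read 14 days after application.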

[11] = system: Scirpus juncoides; assay: Test Example 1: herbicidal effect test by soil application in paddy rice; conditions: Schoenoplectiella juncoides, soil, 336 h; 120 g active ingredient per 10 ares; applied immediately after sowing, flooded pots; 14 days after application; read-out: weed inhibition rate
How it was run: as §2

CCC1C[C@]2(C)O[C@@]1(C(C)C)C[C@H]2OCc1ccccc1C (stereo partly drawn) [1-123, (1R,4S,5R)-2-ethyl-1-isopropyl-4-methyl-5-((2-methylbenzyl)oxy)-7-oxabicyclo[2.2.1]heptane]
≥ 80%: pest or weed control at 1200 g/ha [1] | inhibition at 1200 g/ha [2] | inhibition at 1200 g/ha [3] | inhibition at 1200 g/ha [4] | inhibition at 75 g/ha [5] | inhibition at 75 g/ha [6] | inhibition at 1200 g/ha [7] | pest or weed control at 1200 g/ha [8] | inhibition at 75 g/ha [9]

CCOC(C)O[C@H]1C[C@]2(C)O[C@@]1(C(C)C)C[C@H]2OCc1ccccc1C (stereo partly drawn) [1-208, (1R,2S,4S,5R)-2-(1-ethoxyethoxy)-1-isopropyl-4-methyl-5-((2-methylbenzyl)oxy)-7-oxabicyclo[2.2.1]heptane]
≥ 80%: pest or weed control at 1200 g/ha [1] | inhibition at 1200 g/ha [2] | inhibition at 75 g/ha [10] | inhibition at 1200 g/ha [3] | inhibition at 1200 g/ha [4] | inhibition at 75 g/ha [6] | inhibition at 1200 g/ha [7] | pest or weed control at 1200 g/ha [11] | pest or weed control at 1200 g/ha [8] | inhibition at 75 g/ha [9]

CCOC(C)O[C@H]1C[C@]2(C)O[C@@]1(C(C)C)C[C@H]2OCc1c(F)cccc1F (stereo partly drawn) [1-223, (1S,2R,4R,5S)-2-((2,6-difluorobenzyl)oxy)-5-(1-ethoxyethoxy)-4-isopropyl-1-methyl-7-oxabicyclo[2.2.1]heptane]
≥ 80%: pest or weed control at 1200 g/ha [1] | inhibition at 1200 g/ha [2] | inhibition at 75 g/ha [10] | inhibition at 1200 g/ha [3] | inhibition at 1200 g/ha [4] | inhibition at 75 g/ha [6] | inhibition at 1200 g/ha [7] | pest or weed control at 1200 g/ha [11] | pest or weed control at 1200 g/ha [8] | inhibition at 75 g/ha [9]

CC(C)[C@]12C[C@@H](OCc3ccccc3F)[C@](C)(C[C@@H]1OS(=O)(=O)C(F)(F)F)O2 [1-525, (1R,2S,4S,5R)-5-((2-fluorobenzyl)oxy)-1-isopropyl-4-methyl-7-oxabicyclo[2.2.1]heptan-2-yl trifluoromethanesulfonate]
≥ 80%: pest or weed control at 1200 g/ha [1] | inhibition at 1200 g/ha [2] | inhibition at 1200 g/ha [3] | inhibition at 1200 g/ha [4] | inhibition at 75 g/ha [5] | inhibition at 75 g/ha [6] | inhibition at 1200 g/ha [7] | pest or weed control at 1200 g/ha [11] | pest or weed control at 1200 g/ha [8] | inhibition at 75 g/ha [9]

CC(C)=CCO[C@@H]1C[C@]2(C(C)C)O[C@@]1(C)C[C@@H]2Br [1-672, (1S,2R,4R,5S)-5-bromo-1-methyl-2-(3-methylbut-2-enoxy)-4-isopropyl-7-oxabicyclo[2.2.1]heptane]
≥ 80%: pest or weed control at 1200 g/ha [1] | inhibition at 1200 g/ha [2] | inhibition at 1200 g/ha [3] | inhibition at 1200 g/ha [4] | inhibition at 75 g/ha [5] | inhibition at 75 g/ha [6] | inhibition at 1200 g/ha [7] | pest or weed control at 1200 g/ha [8] | inhibition at 75 g/ha [9]

Cc1cccc(CO[C@@H]2C[C@]3(C(C)C)O[C@@]2(C)C[C@@H]3Br)c1 [1-680, (1S,2R,4R,5S)-5-bromo-1-methyl-2-[(3-methylphenyl)methoxy]-4-isopropyl-7-oxabicyclo[2.2.1]heptane]
≥ 80%: pest or weed control at 1200 g/ha [1] | inhibition at 1200 g/ha [2] | inhibition at 75 g/ha [10] | inhibition at 1200 g/ha [3] | inhibition at 1200 g/ha [4] | inhibition at 75 g/ha [6] | inhibition at 1200 g/ha [7] | pest or weed control at 1200 g/ha [11] | pest or weed control at 1200 g/ha [8] | inhibition at 75 g/ha [9]

CC(C)[C@]12C[C@@H](OCc3ccc(Cl)cc3)[C@](C)(C[C@@H]1Br)O2 [1-693, (1S,2R,4R,5S)-5-bromo-2-[(4-chlorophenyl)methoxy]-1-methyl-4-isopropyl-7-oxabicyclo[2.2.1]heptane]
≥ 80%: pest or weed control at 1200 g/ha [1] | inhibition at 1200 g/ha [2] | inhibition at 75 g/ha [10] | inhibition at 1200 g/ha [3] | inhibition at 1200 g/ha [4] | inhibition at 75 g/ha [6] | inhibition at 1200 g/ha [7] | pest or weed control at 1200 g/ha [11] | pest or weed control at 1200 g/ha [8] | inhibition at 75 g/ha [9]

CC(C)[C@]12C[C@@H](OCc3c(Cl)cccc3Cl)[C@](C)(C[C@@H]1Br)O2 [1-712, (1S,2R,4R,5S)-5-bromo-2-[(2,6-dichlorophenyl)methoxy]-1-methyl-4-isopropyl-7-oxabicyclo[2.2.1]heptane]
≥ 80%: pest or weed control at 1200 g/ha [1] | inhibition at 1200 g/ha [2] | inhibition at 75 g/ha [10] | inhibition at 1200 g/ha [3] | inhibition at 1200 g/ha [4] | inhibition at 75 g/ha [6] | inhibition at 1200 g/ha [7] | pest or weed control at 1200 g/ha [11] | pest or weed control at 1200 g/ha [8] | inhibition at 75 g/ha [9]

CC(C)[C@]12C[C@@H](OCc3ccc(Cl)cc3Cl)[C@](C)(C[C@@H]1Br)O2 [1-717, (1S,2R,4R,5S)-5-bromo-2-[(2,4-dichlorophenyl)methoxy]-1-methyl-4-isopropyl-7-oxabicyclo[2.2.1]heptane]
≥ 80%: pest or weed control at 1200 g/ha [1] | inhibition at 1200 g/ha [2] | inhibition at 1200 g/ha [3] | inhibition at 1200 g/ha [4] | inhibition at 75 g/ha [5] | inhibition at 75 g/ha [6] | inhibition at 1200 g/ha [7] | pest or weed control at 1200 g/ha [11] | pest or weed control at 1200 g/ha [8] | inhibition at 75 g/ha [9]

CC(C)[C@]12C[C@@H](OCc3ccsc3)[C@](C)(C[C@@H]1Br)O2 [1-722, (1S,2R,4R,5S)-5-bromo-1-methyl-4-isopropyl-2-(thiophen-3-ylmethoxy)-7-oxabicyclo[2.2.1]heptane]
≥ 80%: pest or weed control at 1200 g/ha [1] | inhibition at 1200 g/ha [2] | inhibition at 75 g/ha [10] | inhibition at 1200 g/ha [3] | inhibition at 1200 g/ha [4] | inhibition at 75 g/ha [6] | inhibition at 1200 g/ha [7] | pest or weed control at 1200 g/ha [11] | pest or weed control at 1200 g/ha [8] | inhibition at 75 g/ha [9]

CC(C)CC1C[C@]2(C)O[C@@]1(C(C)C)C[C@H]2OCc1ccccc1F (stereo partly drawn) [1-915, (1S,2R,4R)-2-((2-fluorobenzyl)oxy)-5-isobutyl-4-isopropyl-1-methyl-7-oxabicyclo[2.2.1]heptane]
≥ 80%: pest or weed control at 1200 g/ha [1] | inhibition at 1200 g/ha [2] | inhibition at 1200 g/ha [3] | inhibition at 1200 g/ha [4] | inhibition at 75 g/ha [5] | inhibition at 75 g/ha [6] | inhibition at 1200 g/ha [7] | pest or weed control at 1200 g/ha [11] | pest or weed control at 1200 g/ha [8] | inhibition at 75 g/ha [9]
